The source made the active and inactive calls.
Columns and labels:
Phospholipase D1 = Phospholipase D1 (Homo sapiens, UniProt Q13393); assay: cellular phospholipase D1 inhibition IC50 – cell-based, dose response (AID 602151); assay type: functional;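 further: cellular PLD1 assay in Calu-1 cells stimulated with PMA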
Phospholipase D2 = Phospholipase D2 (Homo sapiens, UniProt O14939); assay: cellular phospholipase D2 inhibition IC50 – cell-based, dose response (AID 602147); assay type: functional;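 further: cellular assay in HEK293 cells overexpressing GFP-tagged PLD2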
Sequence of Phospholipase D2 (O14939 whole entry): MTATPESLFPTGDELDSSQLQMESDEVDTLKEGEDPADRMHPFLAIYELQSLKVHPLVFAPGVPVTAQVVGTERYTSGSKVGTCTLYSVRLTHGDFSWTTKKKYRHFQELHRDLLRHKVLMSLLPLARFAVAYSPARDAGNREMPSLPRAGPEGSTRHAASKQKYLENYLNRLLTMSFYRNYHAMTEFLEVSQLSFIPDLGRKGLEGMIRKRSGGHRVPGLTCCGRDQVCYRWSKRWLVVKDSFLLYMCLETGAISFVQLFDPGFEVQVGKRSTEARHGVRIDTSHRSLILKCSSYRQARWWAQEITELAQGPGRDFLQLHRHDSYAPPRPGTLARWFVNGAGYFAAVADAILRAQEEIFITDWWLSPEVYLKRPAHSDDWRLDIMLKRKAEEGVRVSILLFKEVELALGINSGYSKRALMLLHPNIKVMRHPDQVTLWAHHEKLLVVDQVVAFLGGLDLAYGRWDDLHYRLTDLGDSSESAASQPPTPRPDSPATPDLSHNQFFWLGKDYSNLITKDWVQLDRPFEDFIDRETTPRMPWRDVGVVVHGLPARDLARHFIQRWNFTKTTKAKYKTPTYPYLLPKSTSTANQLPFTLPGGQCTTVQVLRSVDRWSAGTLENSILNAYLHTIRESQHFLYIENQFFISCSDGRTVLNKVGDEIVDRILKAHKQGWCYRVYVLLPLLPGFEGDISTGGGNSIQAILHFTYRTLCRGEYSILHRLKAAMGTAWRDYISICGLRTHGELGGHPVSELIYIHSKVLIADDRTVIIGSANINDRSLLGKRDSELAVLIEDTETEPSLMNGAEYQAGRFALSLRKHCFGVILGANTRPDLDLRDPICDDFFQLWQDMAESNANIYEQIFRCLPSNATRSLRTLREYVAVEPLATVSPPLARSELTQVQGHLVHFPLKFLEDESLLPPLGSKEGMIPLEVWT

INS1 = assay: INS-1E mitochondrial potential loss inhibitors – cell-based, JC-1 fluorescence, dry powder, set 2, dose response (AID 488867); assay type: functional; conditions: Rattus norvegicus
[1] = target: Beta-adrenergic receptor kinase 1 (Homo sapiens, UniProt P25098); assay: aptamer displacement from bead-bound GRK2 – biochemical, cherry pick 1, bead flow cytometry, dose response (AID 504500)
Sequence of Beta-adrenergic receptor kinase 1 (P25098 whole entry, the tested form may be a part): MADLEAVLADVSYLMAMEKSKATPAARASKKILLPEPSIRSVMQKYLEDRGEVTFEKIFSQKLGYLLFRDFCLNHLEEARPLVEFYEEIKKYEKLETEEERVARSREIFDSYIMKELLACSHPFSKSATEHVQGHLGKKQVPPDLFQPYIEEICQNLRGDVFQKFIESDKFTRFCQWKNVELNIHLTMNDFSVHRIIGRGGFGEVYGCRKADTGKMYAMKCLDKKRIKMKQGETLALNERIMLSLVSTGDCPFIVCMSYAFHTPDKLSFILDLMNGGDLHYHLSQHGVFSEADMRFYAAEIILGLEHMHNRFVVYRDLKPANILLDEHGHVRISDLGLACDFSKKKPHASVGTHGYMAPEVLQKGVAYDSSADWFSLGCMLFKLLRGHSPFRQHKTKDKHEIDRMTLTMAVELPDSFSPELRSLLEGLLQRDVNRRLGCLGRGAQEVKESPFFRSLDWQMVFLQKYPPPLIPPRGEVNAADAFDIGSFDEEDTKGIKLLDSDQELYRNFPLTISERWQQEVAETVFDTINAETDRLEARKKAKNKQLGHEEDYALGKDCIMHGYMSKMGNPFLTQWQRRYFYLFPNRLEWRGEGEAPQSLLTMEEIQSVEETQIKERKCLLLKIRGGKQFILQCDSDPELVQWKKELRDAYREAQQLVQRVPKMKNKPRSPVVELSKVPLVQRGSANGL

[2] = target: T1, Carboxy-terminal domain RNA polymerase II polypeptide A small phosphatase 1 (Homo sapiens, UniProt Q9GZU7); assay: CTDSP1 inhibitors, concentration-response, biochemical, absorbance readout, ultra-high-throughput screen actives (AID 540297); assay type: functional
T1 sequence (Q9GZU7 whole entry): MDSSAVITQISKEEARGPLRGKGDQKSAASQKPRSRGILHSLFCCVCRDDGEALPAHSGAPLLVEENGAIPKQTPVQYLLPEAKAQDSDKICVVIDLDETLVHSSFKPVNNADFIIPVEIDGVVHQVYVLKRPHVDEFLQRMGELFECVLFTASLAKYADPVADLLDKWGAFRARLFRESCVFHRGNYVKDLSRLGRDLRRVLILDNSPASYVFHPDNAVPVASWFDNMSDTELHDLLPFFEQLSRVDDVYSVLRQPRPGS

Caspase-6 = target: T2, Caspase-6 (Homo sapiens, UniProt P55212); assay: inhibition of CASP6 peptide cleavage – biochemical, VEID-R110 fluorescence, cherry-pick, dose response (AID 720632)
T2 sequence (P55212 whole entry): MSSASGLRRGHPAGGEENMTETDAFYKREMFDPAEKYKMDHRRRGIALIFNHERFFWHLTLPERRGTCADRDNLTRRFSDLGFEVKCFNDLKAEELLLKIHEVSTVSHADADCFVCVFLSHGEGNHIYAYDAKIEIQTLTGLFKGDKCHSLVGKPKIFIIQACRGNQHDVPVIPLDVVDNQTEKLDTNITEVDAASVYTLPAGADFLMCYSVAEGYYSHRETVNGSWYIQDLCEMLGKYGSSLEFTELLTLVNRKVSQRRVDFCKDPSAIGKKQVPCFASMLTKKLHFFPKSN

Caspase-7 = target: T3, Caspase-7 (Homo sapiens, UniProt P55210); assay: caspase-7 enzyme inhibition, selectivity check – biochemical, DEVD-R110 fluorescence, cherry-pick, selectivity assay for caspase-6 inhibitor project, dose response (AID 743295); assay type: functional
T3 sequence (P55210 whole entry): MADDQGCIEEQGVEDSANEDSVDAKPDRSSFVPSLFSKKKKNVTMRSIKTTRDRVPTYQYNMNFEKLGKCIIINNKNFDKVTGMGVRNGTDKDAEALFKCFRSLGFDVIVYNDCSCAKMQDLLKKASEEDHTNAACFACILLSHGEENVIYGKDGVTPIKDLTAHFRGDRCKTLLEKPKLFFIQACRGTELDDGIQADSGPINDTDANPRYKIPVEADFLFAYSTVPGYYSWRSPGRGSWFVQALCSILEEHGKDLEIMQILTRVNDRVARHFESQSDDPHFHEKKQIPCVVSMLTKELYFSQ

Caspase-8 = Caspase-8 (Homo sapiens, UniProt Q14790); assay: inhibitors of purified CASP8 protease – biochemical, Z-IETD-R110 fluorescence, cherry-picked samples, selectivity assay for caspase-6 inhibitor project, dose response (AID 743294)
[3] = target: Dual specificity protein kinase CLK1 (Homo sapiens, UniProt P49759); assay: inhibition of human CLK1 activity – biochemical, cherry-picked samples, selectivity assay for Dyrk1A inhibitor project, dose response (AID 588811)
Sequence of Dual specificity protein kinase CLK1 (P49759 whole entry): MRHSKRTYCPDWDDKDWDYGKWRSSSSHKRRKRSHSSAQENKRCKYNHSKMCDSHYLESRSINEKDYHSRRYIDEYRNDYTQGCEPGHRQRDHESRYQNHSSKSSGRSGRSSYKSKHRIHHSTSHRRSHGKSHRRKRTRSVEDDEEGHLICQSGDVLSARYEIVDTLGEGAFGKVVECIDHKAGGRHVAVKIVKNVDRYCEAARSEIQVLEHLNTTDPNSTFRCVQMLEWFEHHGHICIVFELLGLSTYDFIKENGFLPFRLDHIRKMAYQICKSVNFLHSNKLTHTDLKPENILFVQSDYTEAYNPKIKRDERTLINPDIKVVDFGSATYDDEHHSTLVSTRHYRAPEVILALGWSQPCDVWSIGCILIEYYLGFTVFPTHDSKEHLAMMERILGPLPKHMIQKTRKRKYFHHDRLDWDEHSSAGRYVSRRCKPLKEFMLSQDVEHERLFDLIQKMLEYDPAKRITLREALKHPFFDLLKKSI

[4] = target: Potassium voltage-gated channel subfamily KQT member 2 (Rattus norvegicus, UniProt O88943, W236L); assay: potentiation of rat KCNQ2 current – cell-based, automated electrophysiology, mechanism study for KCNQ2 potentiator project, dose response (AID 2603); assay type: functional
Sequence of Potassium voltage-gated channel subfamily KQT member 2 (O88943 whole entry W236L): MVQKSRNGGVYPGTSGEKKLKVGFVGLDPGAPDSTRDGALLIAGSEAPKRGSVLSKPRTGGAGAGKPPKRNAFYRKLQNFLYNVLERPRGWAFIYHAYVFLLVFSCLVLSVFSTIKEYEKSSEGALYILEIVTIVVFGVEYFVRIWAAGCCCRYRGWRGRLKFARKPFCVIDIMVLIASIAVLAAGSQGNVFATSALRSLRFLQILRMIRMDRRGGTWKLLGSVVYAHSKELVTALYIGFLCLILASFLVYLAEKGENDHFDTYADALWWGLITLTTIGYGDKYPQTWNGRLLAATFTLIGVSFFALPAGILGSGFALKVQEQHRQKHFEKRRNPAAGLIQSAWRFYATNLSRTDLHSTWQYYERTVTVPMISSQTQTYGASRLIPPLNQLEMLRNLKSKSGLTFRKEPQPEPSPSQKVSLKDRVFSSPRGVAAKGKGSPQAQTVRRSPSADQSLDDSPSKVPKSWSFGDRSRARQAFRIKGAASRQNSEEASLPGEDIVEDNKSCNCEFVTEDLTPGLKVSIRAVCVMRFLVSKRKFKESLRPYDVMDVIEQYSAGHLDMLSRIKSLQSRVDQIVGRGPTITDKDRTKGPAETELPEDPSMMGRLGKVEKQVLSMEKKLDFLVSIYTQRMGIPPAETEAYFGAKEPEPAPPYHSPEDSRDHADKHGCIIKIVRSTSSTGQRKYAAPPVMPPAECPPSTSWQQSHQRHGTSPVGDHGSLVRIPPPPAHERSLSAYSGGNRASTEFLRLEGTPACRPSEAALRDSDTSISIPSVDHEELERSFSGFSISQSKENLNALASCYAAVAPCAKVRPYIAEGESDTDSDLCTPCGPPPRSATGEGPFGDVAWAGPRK

[5] = target: T4, Replicative DNA helicase DnaB (Mycobacterium tuberculosis, UniProt P9WMR3); assay: DnaB intein splicing inhibitors, dose response, biochemical, cell-free fluorescence (AID 449749); assay type: functional
T4 sequence (P9WMR3 whole entry): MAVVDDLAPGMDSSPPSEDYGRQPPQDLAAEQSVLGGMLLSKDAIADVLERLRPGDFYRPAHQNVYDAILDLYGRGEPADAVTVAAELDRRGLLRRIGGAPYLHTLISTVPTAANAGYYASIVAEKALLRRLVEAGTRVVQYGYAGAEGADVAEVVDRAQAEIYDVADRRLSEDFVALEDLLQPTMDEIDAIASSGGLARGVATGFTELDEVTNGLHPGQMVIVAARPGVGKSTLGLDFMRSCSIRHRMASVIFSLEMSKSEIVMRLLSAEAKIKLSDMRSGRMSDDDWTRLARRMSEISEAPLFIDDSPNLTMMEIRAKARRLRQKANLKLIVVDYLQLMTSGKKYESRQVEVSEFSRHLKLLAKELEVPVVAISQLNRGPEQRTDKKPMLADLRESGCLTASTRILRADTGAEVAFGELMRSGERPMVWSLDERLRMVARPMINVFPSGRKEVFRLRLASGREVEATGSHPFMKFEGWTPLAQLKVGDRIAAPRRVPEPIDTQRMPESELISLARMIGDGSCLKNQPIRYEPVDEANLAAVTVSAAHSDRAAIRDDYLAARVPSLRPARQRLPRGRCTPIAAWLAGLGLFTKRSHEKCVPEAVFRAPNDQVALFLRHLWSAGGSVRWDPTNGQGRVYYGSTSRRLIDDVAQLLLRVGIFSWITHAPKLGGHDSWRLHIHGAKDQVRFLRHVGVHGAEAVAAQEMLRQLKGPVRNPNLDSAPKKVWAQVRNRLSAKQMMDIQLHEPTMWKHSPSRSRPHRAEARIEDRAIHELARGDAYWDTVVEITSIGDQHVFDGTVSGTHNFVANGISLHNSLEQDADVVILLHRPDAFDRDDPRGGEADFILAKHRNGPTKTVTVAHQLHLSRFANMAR

Vero = assay: viability of Vero cells under compound – cytotoxicity control for flavivirus capping enzyme inhibitors (AID 588742); assay type: functional; conditions: Chlorocebus sabaeus
Protein RecA = target: T5, Protein RecA (Mycobacterium tuberculosis, UniProt P9WHJ3); assay: Fluorescence Cell-Free Homogeneous Dose Retest to Identify Inhibitors of RecA-Intein Splicing Activity. [Related pubchem assays (depositor defined):AID2097, AID2223, AID489010, AID492950]; assay type: functional
T5 sequence (P9WHJ3 whole entry): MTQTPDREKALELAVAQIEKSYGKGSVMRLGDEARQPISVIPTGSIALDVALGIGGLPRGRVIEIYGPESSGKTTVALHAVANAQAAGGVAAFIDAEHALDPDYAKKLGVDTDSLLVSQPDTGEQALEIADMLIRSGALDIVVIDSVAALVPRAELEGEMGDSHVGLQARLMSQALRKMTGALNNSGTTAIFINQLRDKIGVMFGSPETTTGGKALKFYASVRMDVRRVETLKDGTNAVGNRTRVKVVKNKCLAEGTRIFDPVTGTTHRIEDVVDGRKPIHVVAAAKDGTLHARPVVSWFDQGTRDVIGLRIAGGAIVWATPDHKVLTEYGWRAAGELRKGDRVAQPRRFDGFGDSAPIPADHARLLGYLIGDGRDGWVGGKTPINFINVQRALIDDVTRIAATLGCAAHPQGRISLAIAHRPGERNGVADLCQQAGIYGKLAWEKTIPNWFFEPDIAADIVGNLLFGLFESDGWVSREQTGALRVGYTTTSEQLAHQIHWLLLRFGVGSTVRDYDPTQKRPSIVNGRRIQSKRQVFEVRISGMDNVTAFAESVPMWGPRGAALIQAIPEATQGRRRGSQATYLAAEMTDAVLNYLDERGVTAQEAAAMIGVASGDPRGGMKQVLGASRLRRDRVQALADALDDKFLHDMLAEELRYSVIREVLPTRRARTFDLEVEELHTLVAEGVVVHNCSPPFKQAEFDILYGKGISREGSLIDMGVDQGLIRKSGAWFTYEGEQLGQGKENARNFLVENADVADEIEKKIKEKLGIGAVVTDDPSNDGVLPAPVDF

Genome polyprotein = Genome polyprotein (dengue virus type 2, UniProt P29990); assay: flavivirus cap methylation enzyme inhibition – biochemical, confirmation dose response, primary screen (AID 588689); assay type: functional
[6] = reduction of Shn3 3'UTR-driven luciferase in osteoblasts – cell-based, Clone20 osteoblasts, firefly luciferase, cherry-picked, dose response (AID 624132); assay type: functional;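 further: firefly luciferase luminescence from reporter carrying the Shn3 3'UTR in osteoblasts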
[7] = loss of viability in HepG2 cells – cell-based, CellTiter-Glo, cherry-picked, cytotoxicity control for Shn3 inhibitor project, dose response (AID 624134); assay type: functional
[8] = non-specific 3'UTR reporter inhibition in Clone20-Shn3RL – cell-based, Renilla luciferase, cherry-picked, counter-screen for Shn3 inhibitor project, dose response (AID 624133); assay type: functional
[9] = target: T6, Hepatocyte nuclear factor 4-alpha (Homo sapiens, UniProt P41235); assay type: functional, cell-based;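 further: biochemical luminescence-based dose-response counterscreen measuring inhibition of HNF4 dimerization, run alongside a screen for blockers of ABHD5–perilipin-5 interaction; split luciferase complementation of HNF4 fusion proteins in cell lysate measuring dimerization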
T6 sequence (P41235 whole entry): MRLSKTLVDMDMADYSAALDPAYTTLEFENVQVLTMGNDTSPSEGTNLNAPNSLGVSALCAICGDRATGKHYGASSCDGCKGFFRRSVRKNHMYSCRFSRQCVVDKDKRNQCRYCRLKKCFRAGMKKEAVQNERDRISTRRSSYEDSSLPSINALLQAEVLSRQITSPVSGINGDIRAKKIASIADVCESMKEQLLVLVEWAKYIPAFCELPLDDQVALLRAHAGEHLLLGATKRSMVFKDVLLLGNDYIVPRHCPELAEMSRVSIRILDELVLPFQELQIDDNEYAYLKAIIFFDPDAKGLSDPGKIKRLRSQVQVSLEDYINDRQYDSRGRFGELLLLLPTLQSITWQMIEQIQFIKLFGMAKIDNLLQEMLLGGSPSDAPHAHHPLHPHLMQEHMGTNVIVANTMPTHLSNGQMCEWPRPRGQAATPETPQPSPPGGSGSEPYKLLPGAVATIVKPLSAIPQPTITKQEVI

Leucine aminopeptidase = target: T7, Leucine aminopeptidase (Plasmodium falciparum 3D7, UniProt Q8IL11); assay: P. falciparum M17LAP inhibitors, primary screen, biochemical, fluorogenic H-Leu-NHMec substrate, 1536-well (AID 1619); assay type: functional
T7 sequence (Q8IL11 whole entry): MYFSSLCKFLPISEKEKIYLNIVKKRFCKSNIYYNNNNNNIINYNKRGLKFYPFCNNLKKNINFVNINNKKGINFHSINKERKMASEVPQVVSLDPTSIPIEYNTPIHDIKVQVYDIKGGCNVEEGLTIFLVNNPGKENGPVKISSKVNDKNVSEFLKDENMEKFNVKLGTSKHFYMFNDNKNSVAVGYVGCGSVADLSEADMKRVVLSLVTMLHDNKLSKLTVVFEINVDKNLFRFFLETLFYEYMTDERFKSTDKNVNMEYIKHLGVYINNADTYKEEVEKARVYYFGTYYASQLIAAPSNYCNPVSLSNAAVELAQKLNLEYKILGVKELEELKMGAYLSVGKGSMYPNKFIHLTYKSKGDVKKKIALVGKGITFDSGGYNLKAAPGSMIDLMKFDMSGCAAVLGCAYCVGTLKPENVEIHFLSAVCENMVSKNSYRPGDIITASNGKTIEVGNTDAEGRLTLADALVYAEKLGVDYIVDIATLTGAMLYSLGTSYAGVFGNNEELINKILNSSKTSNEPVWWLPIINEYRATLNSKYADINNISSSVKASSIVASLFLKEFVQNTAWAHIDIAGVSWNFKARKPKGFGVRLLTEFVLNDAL

Aspartyl aminopeptidase = Aspartyl aminopeptidase (Plasmodium falciparum 3D7, UniProt Q8I2J3); assay: Counterscreen for inhibitors of M1 and M17 aminopeptidases: QFRET-based biochemical high throughput dose response assay for inhibitors of the Plasmodium falciparum M18 Aspartyl Aminopeptidase (PFM18AAP). [Related PubChem assays: 1619 (Screening assay (M17LAP inhibitors).), 1445 (Screening assay (M1AAP inhibitors).)]
Sequence of Aspartyl aminopeptidase (Q8I2J3 whole entry): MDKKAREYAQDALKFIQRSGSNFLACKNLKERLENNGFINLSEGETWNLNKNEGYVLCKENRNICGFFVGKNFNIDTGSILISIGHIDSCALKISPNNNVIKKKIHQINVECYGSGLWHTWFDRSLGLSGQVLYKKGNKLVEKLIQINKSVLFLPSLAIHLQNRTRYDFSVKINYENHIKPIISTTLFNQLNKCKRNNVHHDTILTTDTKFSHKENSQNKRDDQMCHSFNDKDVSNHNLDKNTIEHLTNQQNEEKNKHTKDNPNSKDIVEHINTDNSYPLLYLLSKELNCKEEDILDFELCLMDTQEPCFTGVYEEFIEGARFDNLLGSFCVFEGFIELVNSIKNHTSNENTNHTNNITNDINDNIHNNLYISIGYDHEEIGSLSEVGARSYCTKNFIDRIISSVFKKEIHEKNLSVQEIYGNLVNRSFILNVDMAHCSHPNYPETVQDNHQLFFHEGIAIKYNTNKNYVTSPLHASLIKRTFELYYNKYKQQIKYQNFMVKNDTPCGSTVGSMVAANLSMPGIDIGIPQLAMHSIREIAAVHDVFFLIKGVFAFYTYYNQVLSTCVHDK

Procathepsin L = Procathepsin L (Homo sapiens, UniProt P07711); assay: CTSL1 protease inhibition – biochemical, QFRET, 1536-well, counter-screen for M1/M17 aminopeptidase inhibitor project, dose response (AID 2214)
Sequence of Procathepsin L (P07711 whole entry): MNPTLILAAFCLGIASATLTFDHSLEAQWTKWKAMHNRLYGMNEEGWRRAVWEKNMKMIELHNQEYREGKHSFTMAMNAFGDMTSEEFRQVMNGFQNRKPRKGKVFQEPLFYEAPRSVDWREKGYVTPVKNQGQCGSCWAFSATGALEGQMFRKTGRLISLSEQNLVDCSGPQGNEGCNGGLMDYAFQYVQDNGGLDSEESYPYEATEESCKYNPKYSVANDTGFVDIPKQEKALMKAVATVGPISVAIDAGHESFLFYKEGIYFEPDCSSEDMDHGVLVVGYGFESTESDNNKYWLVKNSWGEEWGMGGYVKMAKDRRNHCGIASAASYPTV

HEK293 = assay: EBV LMP1 TES2 canonical NF-kB signalling blockers – cell-based, HEK293, luciferase, cherry-pick, dose response (AID 588343); assay type: functional; conditions: Homo sapiens

Sequence of Phospholipase D1 (Q13393 whole entry): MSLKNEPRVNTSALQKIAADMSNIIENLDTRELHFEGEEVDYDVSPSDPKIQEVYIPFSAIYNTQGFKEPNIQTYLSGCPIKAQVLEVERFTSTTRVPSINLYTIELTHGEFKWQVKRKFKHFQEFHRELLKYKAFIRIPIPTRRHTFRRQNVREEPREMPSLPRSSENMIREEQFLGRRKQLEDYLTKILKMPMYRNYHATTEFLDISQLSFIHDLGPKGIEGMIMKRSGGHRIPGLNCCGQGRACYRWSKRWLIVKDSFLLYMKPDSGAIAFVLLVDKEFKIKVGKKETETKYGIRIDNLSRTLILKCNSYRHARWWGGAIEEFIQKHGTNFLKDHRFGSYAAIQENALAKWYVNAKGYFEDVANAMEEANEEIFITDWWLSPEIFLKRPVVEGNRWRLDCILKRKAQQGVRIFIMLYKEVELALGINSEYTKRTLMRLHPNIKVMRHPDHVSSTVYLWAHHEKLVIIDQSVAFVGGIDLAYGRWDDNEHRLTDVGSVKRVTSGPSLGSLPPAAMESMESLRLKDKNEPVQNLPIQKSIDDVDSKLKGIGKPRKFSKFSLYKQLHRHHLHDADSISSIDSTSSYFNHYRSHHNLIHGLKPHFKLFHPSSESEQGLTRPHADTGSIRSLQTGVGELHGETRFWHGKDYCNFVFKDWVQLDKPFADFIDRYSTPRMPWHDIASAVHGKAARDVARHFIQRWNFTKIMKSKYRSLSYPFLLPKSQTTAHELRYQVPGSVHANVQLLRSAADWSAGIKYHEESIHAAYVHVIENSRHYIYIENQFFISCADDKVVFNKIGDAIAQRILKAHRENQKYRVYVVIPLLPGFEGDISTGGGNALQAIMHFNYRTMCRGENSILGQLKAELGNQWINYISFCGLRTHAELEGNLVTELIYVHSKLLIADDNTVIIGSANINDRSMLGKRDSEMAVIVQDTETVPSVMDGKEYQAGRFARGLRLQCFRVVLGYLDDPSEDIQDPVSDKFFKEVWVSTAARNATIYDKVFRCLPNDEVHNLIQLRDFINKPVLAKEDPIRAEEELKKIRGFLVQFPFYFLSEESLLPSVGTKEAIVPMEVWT

## C[C@H](CN1CCC(n2nnc3ccccc32)CC1)NC(=O)c1ccc2ccccc2c1
Phospholipase D1
  IC50: 3.8 µM (active)
Phospholipase D2
  IC50: 12 µM (active)

## COc1ccc(S(=O)(=O)N(C)C[C@@H]2Oc3c(NC(=O)NC(C)C)cccc3C(=O)N([C@@H](C)CO)C[C@H]2C)cc1
INS1
  AC50: 46.4 µM (active)

## O=C(O)C1CCCCC1C(=O)Nc1cccc(Br)c1 (configuration not stated)
[1]
  EC50: 3.85 µM (active)
[2]
  IC50: 3.06 µM (active)
Caspase-6
  AC50: 0.669 µM (active)
Caspase-7
  AC50: > 70 µM (inactive)
Caspase-8
  AC50: 25.8 µM (active)

## CN(Cc1nccs1)c1ncnc2ccc(-c3ccc4c(c3)OCO4)cc12
[3]
  AC50: < 0.00195 µM (active)

## CCc1nnc(NC(=O)c2nc(S(=O)(=O)Cc3ccccc3)ncc2Cl)s1
[4]
  EC50: 17.3 µM (active)
[5]
  AC50: 18.5 µM (active)
Vero
  CC50: 27.6 µM (active)
Protein RecA
  EC50: 5.09 µM (active)
Genome polyprotein
  IC50: > 100 µM (active)
[6]
  AC50: 2.72 µM (active)
[7]
  AC50: > 70 µM (inactive)
[8]
  AC50: 11.1 µM (active)
[9]
  IC50: 5.95 µM (active)

## Cc1cc(C(=O)COC(=O)c2cccnc2O)c(C)n1-c1ccccc1
Leucine aminopeptidase
  IC50: 2.67 µM (active)
Aspartyl aminopeptidase
  IC50: > 73.5 µM (not active)
Procathepsin L
  IC50: > 59.6 µM (not active)
HEK293
  AC50: 9.69 µM (active)

— ChEMBL document CHEMBL1201862, “PubChem BioAssay data set” (2004)
